Reference: PubChem BioAssay AID248 (DTP/NCI, 2004)
Values joined by “and” are separate entries in the source; they are usually repeats but may differ in a detail not shown here. Equal entries are not always repeated. Inconclusive results and toxic doses are left out.

System: L1210 leukemia ip in BDF1 mice, survival T/C
Experiment: NCI In Vivo Anticancer Drug Screen. Data for tumor model L1210 Leukemia (intraperitoneal) in B6D2F1 (BDF1) mice
Details: endpoint: mean survival time, higher = longer survival
Procedure, shortened: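 Transplantable tumor model; survival measured in treated vs vehicle control mice. Value = treated/control.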

[1] = dose: 12.5 mg/kg/injection, schedule: Q01DX009 (ip), vehicle: saline with Tween-80
[2] = dose: 25.0 mg/kg/injection, schedule: Q01DX009 (ip), vehicle: saline with Tween-80
[3] = dose: 100.0 mg/kg/injection, schedule: Q01DX001 (ip), vehicle: carboxymethylcellulose (CMC)
[4] = dose: 200.0 mg/kg/injection, schedule: Q01DX001 (ip), vehicle: carboxymethylcellulose (CMC)
[5] = dose: 400.0 mg/kg/injection, schedule: Q01DX001 (ip), vehicle: carboxymethylcellulose (CMC)
[6] = dose: 100.0 mg/kg/injection, schedule: Q04DX003 (ip), vehicle: saline
[7] = dose: 200.0 mg/kg/injection, schedule: Q04DX003 (ip), vehicle: saline
[8] = dose: 100.0 mg/kg/injection, schedule: Q01DX009 (ip), vehicle: saline with Tween-80
[9] = dose: 200.0 mg/kg/injection, schedule: Q01DX009 (ip), vehicle: saline with Tween-80
[10] = dose: 25.0 mg/kg/injection, schedule: Q04DX003 (ip), vehicle: Klucel (hydroxypropylcellulose) (HPC)
[11] = dose: 50.0 mg/kg/injection, schedule: Q04DX003 (ip), vehicle: Klucel (hydroxypropylcellulose) (HPC)
[12] = dose: 100.0 mg/kg/injection, schedule: Q04DX003 (ip), vehicle: Klucel (hydroxypropylcellulose) (HPC)
[13] = dose: 50.0 mg/kg/injection, schedule: Q01DX009 (ip), vehicle: saline with Tween-80

## COc1ccc(N=C=S)cc1N=C=S
dose: 6.25 mg/kg/injection, schedule: Q01DX009 (ip), vehicle: saline with Tween-80
  T/C: 101 % of control
[1]
  T/C: 103 % of control
[2]
  T/C: 104 % of control

## O=C1CCC(N2C(=O)C3C4CCC(O4)C3C2=O)C(=O)O1 (stereo not drawn)
dose: 100.0 mg/kg/injection, schedule: Q04DX002 (ip), vehicle: saline
  T/C: 102 % of control
dose: 200.0 mg/kg/injection, schedule: Q04DX002 (ip), vehicle: saline
  T/C: 94 % of control
dose: 400.0 mg/kg/injection, schedule: Q04DX002 (ip), vehicle: saline
  T/C: 91 % of control

## O=C(O)c1c(-c2nccc3ccccc23)[nH]c(-c2ccccc2)c1S(=O)(=O)O
dose: 75.0 mg/kg/injection, schedule: Q01DX001 (ip), vehicle: saline
  T/C: 103 % of control
dose: 150.0 mg/kg/injection, schedule: Q01DX001 (ip), vehicle: saline
  T/C: 101 % of control

## CCOC(=O)CN1CCC(C(=O)OCC)CC1
dose: 50.0 mg/kg/injection, schedule: Q01DX001 (ip), vehicle: carboxymethylcellulose (CMC)
  T/C: 106 % of control
[3]
  T/C: 97 % of control
[4]
  T/C: 103 % of control
[5]
  T/C: 106 % of control

## C=CCn1cnc(=N)c2[nH]cnc21
dose: 50.0 mg/kg/injection, schedule: Q01DX009 (ip), vehicle: saline
  T/C: 94 % of control
dose: 100.0 mg/kg/injection, schedule: Q01DX009 (ip), vehicle: saline
  T/C: 87 % of control
[6]
  T/C: 90 % of control
dose: 200.0 mg/kg/injection, schedule: Q01DX009 (ip), vehicle: saline
  T/C: 93 % of control
[7]
  T/C: 94 % of control

## Cc1ccc2[nH]c(=O)oc(=O)c2c1
[8]
  T/C: 105 % of control
[9]
  T/C: 102 % of control

## CN(C)CC/C=C1\c2ccccc2CCSc2ccccc21
[10]
  T/C: 100 % of control
[11]
  T/C: 100 % of control
[12]
  T/C: 98 % of control

## CCC[CH2][Sn]([Cl])([Cl])[CH2]CCC.c1ccncc1
dose: 3.0 mg/kg/injection, schedule: Q01DX009 (ip), vehicle: Klucel (hydroxypropylcellulose) (HPC)
  T/C: 93 % of control
dose: 6.0 mg/kg/injection, schedule: Q01DX009 (ip), vehicle: Klucel (hydroxypropylcellulose) (HPC)
  T/C: 107 % of control
dose: 12.0 mg/kg/injection, schedule: Q01DX009 (ip), vehicle: Klucel (hydroxypropylcellulose) (HPC)
  T/C: 92 % of control
dose: 12.5 mg/kg/injection, schedule: Q01DX009 (ip), vehicle: Klucel (hydroxypropylcellulose) (HPC)
  T/C: 87 % of control
dose: 12.5 mg/kg/injection, schedule: Q04DX002 (ip), vehicle: Klucel (hydroxypropylcellulose) (HPC)
  T/C: 91 % of control
dose: 25.0 mg/kg/injection, schedule: Q04DX002 (ip), vehicle: Klucel (hydroxypropylcellulose) (HPC)
  T/C: 106 % of control

## CC1(C)N=C(N)N=C(N)N1c1ccc(Cl)c(C(F)(F)F)c1
dose: 8.33 mg/kg/injection, schedule: Q01DX009 (ip), vehicle: saline with Tween-80
  T/C: 115 % of control
dose: 8.8 mg/kg/injection, schedule: Q04DX003 (ip), vehicle: saline with Tween-80
  T/C: 107 % of control
[1]
  T/C: 118 % of control
dose: 13.3 mg/kg/injection, schedule: Q04DX003 (ip), vehicle: saline with Tween-80
  T/C: 104 % of control
dose: 20.0 mg/kg/injection, schedule: Q04DX003 (ip), vehicle: saline with Tween-80
  T/C: 101 % of control
[2]
  T/C: 116 % of control
dose: 30.0 mg/kg/injection, schedule: Q04DX003 (ip), vehicle: saline with Tween-80
  T/C: 106 % of control
dose: 33.0 mg/kg/injection, schedule: Q01DX009 (ip), vehicle: saline with Tween-80
  T/C: 118 % of control
dose: 45.0 mg/kg/injection, schedule: Q04DX003 (ip), vehicle: saline with Tween-80
  T/C: 115 % of control
[13]
  T/C: 98 % of control
dose: 100.0 mg/kg/injection, schedule: Q04DX003 (ip), vehicle: saline with Tween-80
  T/C: 108 % of control

## CC1(C)CC(=O)C(N=Nc2ccccc2)=C(O)C1
dose: 100.0 mg/kg/injection, schedule: Q04DX002 (ip), vehicle: Klucel (hydroxypropylcellulose) (HPC)
  T/C: 105 % of control
dose: 200.0 mg/kg/injection, schedule: Q04DX002 (ip), vehicle: Klucel (hydroxypropylcellulose) (HPC)
  T/C: 108 % of control
dose: 400.0 mg/kg/injection, schedule: Q04DX002 (ip), vehicle: Klucel (hydroxypropylcellulose) (HPC)
  T/C: 94 % of control

## Cn1c(N)c(N=O)c(=O)n(C)c1=O
dose: 9.0 mg/kg/injection, schedule: Q01DX009 (ip), vehicle: saline with Tween-80
  T/C: 103 % of control
dose: 18.0 mg/kg/injection, schedule: Q01DX009 (ip), vehicle: saline with Tween-80
  T/C: 103 % of control
dose: 36.0 mg/kg/injection, schedule: Q01DX009 (ip), vehicle: saline with Tween-80
  T/C: 105 % of control
dose: 72.0 mg/kg/injection, schedule: Q01DX009 (ip), vehicle: saline with Tween-80
  T/C: 97 % of control
dose: 90.0 mg/kg/injection, schedule: Q01DX009 (ip), vehicle: saline with Tween-80
  T/C: 93 % of control
dose: 180.0 mg/kg/injection, schedule: Q01DX009 (ip), vehicle: saline with Tween-80
  T/C: 100 % of control
dose: 360.0 mg/kg/injection, schedule: Q01DX009 (ip), vehicle: saline with Tween-80
  T/C: 98 % of control
dose: 360.0 mg/kg/injection, schedule: Q04DX003 (ip), vehicle: saline with Tween-80
  T/C: 97 % of control
dose: 720.0 mg/kg/injection, schedule: Q04DX003 (ip), vehicle: saline with Tween-80
  T/C: 95 % of control

## CCN(CC)CCN1C(=O)C(c2ccccc2)C2(CCN(C)CC2)C1=O (stereo not drawn)
dose: 100.0 mg/kg/injection, schedule: Q01DX001 (ip), vehicle: saline
  T/C: 101 % of control
dose: 200.0 mg/kg/injection, schedule: Q01DX001 (ip), vehicle: saline
  T/C: 105 % of control
dose: 400.0 mg/kg/injection, schedule: Q01DX001 (ip), vehicle: saline
  T/C: 97 % of control

## O=C(NCCO)c1ccc(Br)cc1
[13]
  T/C: 97 % of control
[8]
  T/C: 97 % of control
[9]
  T/C: 90 % of control

## CC[n+]1ccc(Cc2ccc([N+](=O)[O-])cc2)cc1
dose: 25.0 mg/kg/injection, schedule: Q01DX009 (ip), vehicle: Klucel (hydroxypropylcellulose) (HPC)
  T/C: 102 % of control
dose: 50.0 mg/kg/injection, schedule: Q01DX009 (ip), vehicle: Klucel (hydroxypropylcellulose) (HPC)
  T/C: 95 % of control
dose: 100.0 mg/kg/injection, schedule: Q01DX009 (ip), vehicle: Klucel (hydroxypropylcellulose) (HPC)
  T/C: 100 % of control

## O=C(O)c1c(Cl)ccc([N+](=O)[O-])c1Cl
[12]
  T/C: 88 % of control
dose: 200.0 mg/kg/injection, schedule: Q04DX003 (ip), vehicle: Klucel (hydroxypropylcellulose) (HPC)
  T/C: 95 % of control
dose: 400.0 mg/kg/injection, schedule: Q04DX003 (ip), vehicle: Klucel (hydroxypropylcellulose) (HPC)
  T/C: 92 % of control

## CN(C(=O)COc1ccc(N2C(N)=NC(N)=NC2(C)C)cc1Cl)c1ccc(S(=O)(=O)F)cc1
dose: 100.0 mg/kg/injection, schedule: Q01DX001 (ip), vehicle: saline with Tween-80
  T/C: 112 % of control
dose: 200.0 mg/kg/injection, schedule: Q01DX001 (ip), vehicle: saline with Tween-80
  T/C: 102 % of control
dose: 400.0 mg/kg/injection, schedule: Q01DX001 (ip), vehicle: saline with Tween-80
  T/C: 105 % of control

## O=C1CSCCN1
[6]
  T/C: 101 % of control
[7]
  T/C: 101 % of control
dose: 400.0 mg/kg/injection, schedule: Q04DX003 (ip), vehicle: saline
  T/C: 98 % of control

## O=C(N/C=C/NC(=O)c1ccccc1)c1ccccc1
dose: 100.0 mg/kg/injection, schedule: Q01DX001 (ip), vehicle: Klucel (hydroxypropylcellulose) (HPC)
  T/C: 104 % of control
dose: 200.0 mg/kg/injection, schedule: Q01DX001 (ip), vehicle: Klucel (hydroxypropylcellulose) (HPC)
  T/C: 111 % of control
dose: 400.0 mg/kg/injection, schedule: Q01DX001 (ip), vehicle: Klucel (hydroxypropylcellulose) (HPC)
  T/C: 104 % of control

## NS(=O)(=O)c1cc2c(cc1Cl)NC(CSCC(F)(F)F)NS2(=O)=O (stereo not drawn)
[3]
  T/C: 113 % of control
[4]
  T/C: 108 % of control
[5]
  T/C: 97 % of control

## Cc1cc(N(CCOS(C)(=O)=O)CCOS(C)(=O)=O)ccc1C=Nc1cc(Br)c(O)c(Br)c1
[10]
  T/C: 107 % of control and 111 % of control
[11]
  T/C: 109 % of control
dose: 75.0 mg/kg/injection, schedule: Q04DX003 (ip), vehicle: Klucel (hydroxypropylcellulose) (HPC)
  T/C: 175 % of control
